Entries after “also recorded” stand apart in the source; their conditions may differ.
Experiments:
[1] = molecular target: T1, MAO B (Homo sapiens, UniProt P27338); assay: Autoradiography of [^18F]compound 13 on human brain sections (Alzheimer's disease), blocking with MAO B inhibitors; assay type: binding
T1 construct: investigated on human brain sections from patients with Alzheimer's disease and normal controls; from tissue; host or cells: human brain sections (Alzheimer's disease patients and normal controls)
T1 sequence (P27338 1-520): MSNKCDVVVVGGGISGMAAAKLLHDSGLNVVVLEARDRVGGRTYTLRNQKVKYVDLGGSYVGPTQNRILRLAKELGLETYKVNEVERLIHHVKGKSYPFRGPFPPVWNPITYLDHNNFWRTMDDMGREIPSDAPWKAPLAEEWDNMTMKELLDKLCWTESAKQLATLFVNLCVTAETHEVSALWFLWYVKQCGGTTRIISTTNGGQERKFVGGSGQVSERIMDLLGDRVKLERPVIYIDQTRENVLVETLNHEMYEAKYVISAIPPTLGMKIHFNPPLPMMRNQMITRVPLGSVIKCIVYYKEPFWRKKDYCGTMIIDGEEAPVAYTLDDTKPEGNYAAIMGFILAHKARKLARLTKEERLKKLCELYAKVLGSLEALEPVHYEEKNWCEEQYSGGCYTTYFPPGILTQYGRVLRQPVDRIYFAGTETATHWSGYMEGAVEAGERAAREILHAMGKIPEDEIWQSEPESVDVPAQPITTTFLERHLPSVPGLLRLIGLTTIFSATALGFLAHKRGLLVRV
Experimental: Thereafter, the slides were removed and brought to room temperature. […] The sections were dipped two times into ice cold distilled water, dried at room temperature and exposed to PhosphorImanger plates (FUJI BAS 5000) over night. For detection of the specificity of the signals an excess (10 μM) of Deprenyl, Pargylin (both for MAO B) and Clorgyline (for MAO A), respectively, was used. After exposure, the sections were immunohistochemically stained using a standard protocol with an anti-GFAP antibody to detect reactive astrocytes. Amyloid B plaques were detected with BAY 949172 (Rowe CC et al. Lancet Neutol 2008; 7: 129-135) using the binding protocol as described above.

[2] = PET brain uptake (time activity curves, SUV) in cynomolgus monkey; settings: same monkey
[3] = Biodistribution in NMRI mice (gamma counter); assay type: in vivo; settings: 0.178 MBq injected, decay corrected
Experimental: For each time point 3 mice have been used. The mice were injected each with 0.178 MBq[^18F]compound 13. After the respective time points the mice were sacrificed, the organs taken out and measured in a gamma counter. The results were decay corrected.

[4] = Plasma radioactivity and plasma metabolites in cynomolgus monkey; assay type: in vivo
Description: Plasma radioactivity profiles have been monitored over time. […] In addition, metabolites occurring in plasma over time have been monitored (FIGS. 8 and 9) for both ligands.

[5] = reported in the literature; cited from earlier work

Compound: C#CCN(C)[C@H](C[18F])Cc1ccccc1 [[^18F]compound 13, N-[(2S)-1-(^18F)fluoro-3-phenylpropan-2-yl]-N-methylprop-2-yn-1-amine]
- relation of autoradiographic signal density and intensity to amyloid β pathology ([1]; Alzheimer's disease brain slices, amyloid detected with BAY 949172): corresponds with the amyloid β plaque load
- autoradiographic signal blocked with deprenyl ([1]; human Alzheimer's disease brain slices, 10 Bq/μl tracer, excess (10 μM) of Deprenyl): could be blocked; also recorded: completely blocked
- autoradiographic signal blocked with pargylin ([1]; human Alzheimer's disease brain slices, 10 Bq/μl tracer, excess (10 μM) of Pargylin): could be blocked
- relation of autoradiographic signal to reactive astrocytes (GFAP immunoreactivity) ([1]; human brain slice from a patient with AD, anti-GFAP staining): correspondence of the autoradiographic signal to reactive astrocytes is demonstrated
- uptake and enrichment in specific regions, e.g. striatum, higher than [^11C]Deprenyl [2]: about 10%
- brain uptake of radioactivity ([3]; 2 min p.i.): 7.5 ± 0.04 % ID/g
- radioactivity in brain ([3]; 30 min p.i.): 2.10±0.33 % ID/g
- radioactivity in brain ([3]; after 4 hours): 1.34±0.26 % ID/g
- metabolic stability compared to [^11C]Deprenyl (and compound 5) ([4]; plasma metabolites): improved metabolic stability; also recorded: more stable
- generation of metabolite b in plasma (level) ([4]; plasma over time): around 10%

Compound: C#CCN(C)CCCCCC[18F] [compound 5]
- degradation to metabolite [5]: degraded quickly towards a polar [^18F]-labelled metabolite

— patent publication US20100233086A1, “COMPOUNDS FOR USE IN IMAGING, DIAGNOSING AND/OR TREATMENT OF DISEASES OF THE CENTRAL NERVOUS SYSTEM OR OF TUMORS” (priority 2007, published 2010)
